A value given as a limit tells only on which side of the number the result lay.

This test has as its target T1, HDAC6 (Homo sapiens, UniProt Q9UBN7).
T1 construct: Full length human recombinant HDAC6 protein was expressed in baculoviral system; made in house; host or cells: baculoviral system
T1 sequence (Q9UBN7 1-1215): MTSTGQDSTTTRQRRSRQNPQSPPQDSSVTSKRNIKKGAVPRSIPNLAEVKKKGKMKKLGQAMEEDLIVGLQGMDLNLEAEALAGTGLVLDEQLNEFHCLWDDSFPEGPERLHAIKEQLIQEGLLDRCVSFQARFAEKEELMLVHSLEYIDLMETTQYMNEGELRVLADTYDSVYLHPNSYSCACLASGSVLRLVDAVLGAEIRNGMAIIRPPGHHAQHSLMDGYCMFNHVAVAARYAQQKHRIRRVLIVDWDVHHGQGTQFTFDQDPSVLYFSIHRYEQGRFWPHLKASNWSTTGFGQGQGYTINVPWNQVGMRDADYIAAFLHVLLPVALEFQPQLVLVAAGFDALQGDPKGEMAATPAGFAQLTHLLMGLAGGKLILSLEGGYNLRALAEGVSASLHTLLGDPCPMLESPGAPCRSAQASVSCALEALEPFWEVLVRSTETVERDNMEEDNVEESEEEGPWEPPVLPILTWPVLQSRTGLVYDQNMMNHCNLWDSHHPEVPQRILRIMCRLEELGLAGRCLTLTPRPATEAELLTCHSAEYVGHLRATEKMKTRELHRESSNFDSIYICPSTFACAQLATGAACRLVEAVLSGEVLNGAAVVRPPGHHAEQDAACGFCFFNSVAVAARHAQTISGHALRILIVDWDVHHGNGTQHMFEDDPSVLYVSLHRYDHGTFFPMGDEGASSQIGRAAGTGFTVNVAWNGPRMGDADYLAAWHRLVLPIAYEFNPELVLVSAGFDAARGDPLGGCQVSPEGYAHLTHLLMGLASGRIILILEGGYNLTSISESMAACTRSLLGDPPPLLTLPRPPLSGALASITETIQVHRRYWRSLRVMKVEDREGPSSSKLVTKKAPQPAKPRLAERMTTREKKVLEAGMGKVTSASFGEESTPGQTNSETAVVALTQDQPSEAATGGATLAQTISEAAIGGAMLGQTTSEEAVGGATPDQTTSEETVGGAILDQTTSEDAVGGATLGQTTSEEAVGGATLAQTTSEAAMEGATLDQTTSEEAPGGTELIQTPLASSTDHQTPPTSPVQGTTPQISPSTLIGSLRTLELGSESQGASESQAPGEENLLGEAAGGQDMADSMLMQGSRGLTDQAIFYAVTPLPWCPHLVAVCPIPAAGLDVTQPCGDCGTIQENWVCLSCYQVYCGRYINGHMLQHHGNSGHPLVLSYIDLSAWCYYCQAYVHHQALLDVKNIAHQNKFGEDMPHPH
As to the kind of experiment: In vitro Histone Deacetylase Assay (enzymatic HDAC6 electrophoretic mobility shift assay). The following applies: full length human recombinant HDAC6, 1 nM enzyme, 2 μM peptide substrate RHKK(Ac)-NH2, 25° C.; read-out: HDAC6 activity range. It counts as biochemical. The procedure, abridged:
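Deacetylation was read by microfluidic mobility shift as product/(substrate+product) peak ratio and normalised to 0% and 100% inhibition controls. Reactions used 1 nM baculovirus-expressed full-length human HDAC6 and 2 μM labelled RHKK(Ac)-NH2 in pH 7.5 HEPES buffer with 1% DMSO at 25 °C. IC50 was from 4-parameter fits of 12 concentrations.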
(In EMSA bound probe runs differently from free probe, usually more slowly.)
For `CC(C)N1CC[C@@]2(CCc3cc(C(=O)NO)ccc3C2)C1=O` [Compound I-25, (S)-N-hydroxy-1′-isopropyl-2′-oxo-3,4-dihydro-1H-spiro[naphthalene-2,3′-pyrrolidine]-6-carboxamide], the IC50 was no more than 100 nM. As for `N#Cc1cccc(N2CC[C@]3(CCc4cc(C(=O)NO)ccc4C3)C2=O)c1` [Compound I-112, (R)-1′-(3-cyanophenyl)-N-hydroxy-2′-oxo-3,4-dihydro-1H-spiro[naphthalene-2,3′-pyrrolidine]-6-carboxamide], the figure is no more than 100 nM; as for `Cn1cc(N2CC[C@]3(CCc4cc(C(=O)NO)ccc4C3)C2=O)cn1` [Compound I-168, (R)-N-hydroxy-1′-(1-methyl-1H-pyrazol-4-yl)-2′-oxo-3,4-dihydro-1H-spiro[naphthalene-2,3′-pyrrolidine]-6-carboxamide], no more than 100 nM; as for `O=C(NO)c1ccc2c(c1)CC[C@]1(CCN(c3cccc4c3OCC4)C1=O)C2` [Compound I-96, (R)-1′-(2,3-dihydrobenzofuran-7-yl)-N-hydroxy-2′-oxo-3,4-dihydro-1H-spiro[naphthalene-2,3′-pyrrolidine]-6-carboxamide], no more than 100 nM. With `CCN1CCCC2(CCc3cc(C(=O)NO)ccc3C2)C1=O` (single isomer, unassigned) [Compound I-194], the IC50 is no more than 100 nM.

Take `O=C(NO)c1ccc2c(c1)CCC1(CC(=O)N(C3CC3)C1)C2` (single isomer, unassigned) [Compound I-209]: the IC50 was no more than 100 nM. As for `COc1cc(N2CC[C@@]3(CCc4cc(C(=O)NO)ccc4C3)C2=O)ccn1` [Compound I-150, (S)-N-hydroxy-1′-(2-methoxypyridin-4-yl)-2′-oxo-3,4-dihydro-1H-spiro[naphthalene-2,3′-pyrrolidine]-6-carboxamide], the figure is no more than 100 nM; as for `Cc1ccc(N2CC[C@]3(CCc4cc(C(=O)NO)ccc4C3)C2=O)cn1` [Compound I-133, (R)-N-hydroxy-1′-(6-methylpyridin-3-yl)-2′-oxo-3,4-dihydro-1H-spiro[naphthalene-2,3′-pyrrolidine]-6-carboxamide], no more than 100 nM.

Consider `CC(C)N1CCCC2(CCc3cc(C(=O)NO)ccc3C2)C1=O` (single isomer, unassigned) [Compound I-191], for which the IC50 was no more than 100 nM.

As to `COCCn1c(CN2CC[C@]3(CCc4cc(C(=O)NO)ccc4C3)C2=O)nc2ccccc21` [Compound I-22, (R)-N-hydroxy-1′-((1-(2-methoxyethyl)-1H-benzo[d]imidazol-2-yl)methyl)-2′-oxo-3,4-dihydro-1H-spiro[naphthalene-2,3′-pyrrolidine]-6-carboxamide], the IC50 is no more than 100 nM. Regarding `O=C(NO)c1ccc2c(c1)CCC1(CCN(Cc3ccccc3)C1=O)S2(=O)=O` (centres unmarked) [Compound I-239, 1-benzyl-N-hydroxy-2-oxospiro[pyrrolidine-3,2′-thiochromane]-6′-carboxamide 1′,1′-dioxide], the IC50 lay in the range of 100 to 500 nM.

These data come from patent publication US9630922B2, “3-spiro-7-hydroxamic acid tetralins as HDAC inhibitors” (Forma Therapeutics, Inc., priority 2015, dated 2017).
